Active and inactive are the calls of the source. The rule behind the calls is not given here.
Legend:
Acetylcholinesterase [1] = molecular target: T1, Acetylcholinesterase (Homo sapiens, UniProt P22303); assay: Inhibition of human AChE
Cholinesterase = Cholinesterase (Equus caballus, UniProt P81908); assay: Inhibition of equine serum BuChE using butyrylthiocholine iodide as substrate preincubated with enzyme for 10 mins followed by substrate addition and measured every 1 min for 20 mins by spectrophotometric analysis
Sequence of Cholinesterase (P81908 whole entry): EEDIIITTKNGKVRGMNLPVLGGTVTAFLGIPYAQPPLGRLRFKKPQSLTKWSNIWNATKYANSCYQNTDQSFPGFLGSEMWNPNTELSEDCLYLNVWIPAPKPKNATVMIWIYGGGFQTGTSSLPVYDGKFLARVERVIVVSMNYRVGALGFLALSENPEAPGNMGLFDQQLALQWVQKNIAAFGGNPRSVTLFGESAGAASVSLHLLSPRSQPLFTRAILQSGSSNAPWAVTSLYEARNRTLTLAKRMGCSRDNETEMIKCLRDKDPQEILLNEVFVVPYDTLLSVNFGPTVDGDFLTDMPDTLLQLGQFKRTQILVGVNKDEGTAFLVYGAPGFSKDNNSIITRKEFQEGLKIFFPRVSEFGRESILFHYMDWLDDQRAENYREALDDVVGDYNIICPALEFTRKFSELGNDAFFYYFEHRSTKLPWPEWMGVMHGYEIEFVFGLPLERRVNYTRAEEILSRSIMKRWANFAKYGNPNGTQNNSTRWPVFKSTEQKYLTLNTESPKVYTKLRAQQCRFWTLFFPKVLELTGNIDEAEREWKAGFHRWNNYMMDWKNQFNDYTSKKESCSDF

[2] = Selectivity index, ratio of IC50 for equine serum BuChE to IC50 for electric eel AChE
in vitro = details: PAMPA
Description: Permeability of the compound at 25 ug/ml incubated or 18 hrs by PAMPA-BBB assay

[3] = Antagonist activity at GluN1-1a/GluN2B (unknown origin) expressed in xenopus laevis oocytes assessed as inhibition of glycine/glutamate-induced channel current incubated for 20s measured at holding potential of -70 mV by two-electrode voltage clamp technique; type: cell-based, Homo sapiens; details: Oocyte
Acetylcholinesterase [4] = molecular target: Acetylcholinesterase (Electrophorus electricus, UniProt O42275); assay: Inhibition of electric eel AChE using acetylthiocholine iodide as substrate preincubated with enzyme for 10 mins followed by substrate addition and measured every 1 min for 20 mins by spectrophotometric analysis
Sequence of Acetylcholinesterase (Electrophorus electricus, UniProt O42275) (O42275 whole entry): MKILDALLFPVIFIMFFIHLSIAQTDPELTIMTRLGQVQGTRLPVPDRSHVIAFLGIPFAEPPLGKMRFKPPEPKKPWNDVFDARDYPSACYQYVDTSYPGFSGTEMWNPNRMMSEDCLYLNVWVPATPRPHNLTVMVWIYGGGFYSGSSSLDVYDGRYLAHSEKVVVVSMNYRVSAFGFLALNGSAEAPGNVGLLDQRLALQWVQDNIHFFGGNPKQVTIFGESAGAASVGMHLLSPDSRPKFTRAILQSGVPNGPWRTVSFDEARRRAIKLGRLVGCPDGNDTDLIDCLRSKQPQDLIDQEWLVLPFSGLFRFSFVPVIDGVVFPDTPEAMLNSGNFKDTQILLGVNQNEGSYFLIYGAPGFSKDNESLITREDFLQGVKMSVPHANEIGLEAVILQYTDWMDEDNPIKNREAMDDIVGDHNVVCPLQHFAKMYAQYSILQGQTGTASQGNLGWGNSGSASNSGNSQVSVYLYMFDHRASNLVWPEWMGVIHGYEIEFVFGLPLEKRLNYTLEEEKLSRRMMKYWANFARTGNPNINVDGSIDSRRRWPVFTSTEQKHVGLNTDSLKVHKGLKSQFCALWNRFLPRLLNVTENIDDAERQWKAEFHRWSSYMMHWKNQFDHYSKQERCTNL

Rattus norvegicus [5] = assay: Antialzheimer activity against Abeta(1 to 42)-induced coginitive deficit Wistar rat model assessed as increase in total number of platform crossings at 5 mg/kg, po administered for 7 days by Morris water maze test; type: functional, organism-based; details: time 7.0 day
Rattus norvegicus [6] = assay: Antialzheimer activity against scopalamine-induced amnesia Wistar rat model assessed as inhibition of cognition impairment by measuring increase in spontaneous alterations at 5 mg/kg, po administered for 7 days and on day 7 administered with scopolamine at 30 mins before drug administration by Y-maze test; type: functional, organism-based; details: time 7.0 day
Rattus norvegicus [7] = assay: Antialzheimer activity against Abeta(1 to 42)-induced coginitive deficit Wistar rat model assessed as increase in time spent in the platform zone at 5 mg/kg, po administered for 7 days by Morris water maze test; type: functional, organism-based; details: time 7.0 day
[8] = Antagonist activity at NMDA receptor (unknown origin); parameters: species or system Homo sapiens
SH-SY5Y = assay: Neuroprotective activity against human SH-SY5Y cells assessed as reduction of Abeta(1 to 42)-induced cytotoxicity upto 10 uM pretreated with Abeta42 for 24 hrs followed by incubation with compound for 72 hrs by MTT assay; type: functional, cell-based
Rattus norvegicus [9] = assay: Antialzheimer activity against Abeta(1 to 42)-induced coginitive deficit Wistar rat model assessed as increase in total number of platform crossings at 10 mg/kg, po administered for 7 days by Morris water maze test; type: functional, organism-based; details: time 7.0 day
[10] = Antagonist activity at GluN1-1b/GluN2A (unknown origin) expressed in xenopus laevis oocytes assessed as inhibition of glycine/glutamate-induced channel current incubated for 20s measured at holding potential of -70 mV by two-electrode voltage clamp technique; type: cell-based; details: Homo sapiens, Oocyte
[11] = Antagonist activity at GluN1-1b/GluN2B (unknown origin) expressed in xenopus laevis oocytes assessed as inhibition of glycine/glutamate-induced channel current incubated for 20s measured at holding potential of -70 mV by two-electrode voltage clamp technique; type: cell-based; details: Homo sapiens, Oocyte
[12] = Antagonist activity at GluN1-1b/GluN2C (unknown origin) expressed in xenopus laevis oocytes assessed as inhibition of glycine/glutamate-induced channel current incubated for 20s measured at holding potential of -70 mV by two-electrode voltage clamp technique; type: cell-based; details: Homo sapiens, Oocyte
[13] = molecular target: T2, Acetylcholinesterase (Rattus norvegicus) (UniProt P37136); assay: Ex vivo inhibition of AChE activity in brain of scopalamine-induced amnesia Wistar rat model at 2.5 to 10 mg/kg, po administered for 7 days and on day 7 administered with scopolamine at 30 mins before drug administration; type: functional, organism-based; details: dose 2.5-10 mg/kg, time 7.0 day
T2 sequence (whole entry): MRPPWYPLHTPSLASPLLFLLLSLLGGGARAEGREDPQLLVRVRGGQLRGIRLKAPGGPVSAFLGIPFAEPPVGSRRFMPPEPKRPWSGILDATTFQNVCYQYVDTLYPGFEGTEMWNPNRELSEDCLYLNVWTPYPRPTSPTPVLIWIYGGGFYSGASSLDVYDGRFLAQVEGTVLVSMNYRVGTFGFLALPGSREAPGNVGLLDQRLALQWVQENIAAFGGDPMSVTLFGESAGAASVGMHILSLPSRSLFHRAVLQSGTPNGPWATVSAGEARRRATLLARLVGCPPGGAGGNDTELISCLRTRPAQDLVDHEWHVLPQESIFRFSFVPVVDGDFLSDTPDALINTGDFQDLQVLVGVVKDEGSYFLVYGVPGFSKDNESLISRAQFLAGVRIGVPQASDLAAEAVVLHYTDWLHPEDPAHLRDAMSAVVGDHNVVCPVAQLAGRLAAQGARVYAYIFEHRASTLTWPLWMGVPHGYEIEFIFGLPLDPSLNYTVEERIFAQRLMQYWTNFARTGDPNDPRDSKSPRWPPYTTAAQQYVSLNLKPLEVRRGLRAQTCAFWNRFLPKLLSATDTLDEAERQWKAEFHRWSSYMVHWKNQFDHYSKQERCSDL

Rattus norvegicus [14] = assay: Antialzheimer activity against Abeta(1 to 42)-induced coginitive deficit Wistar rat model assessed as increase in time spent in the platform zone at 10 mg/kg, po administered for 7 days by Morris water maze test; type: functional, organism-based; details: time 7.0 day
[15] = Antagonist activity at GluN1-1a/GluN2C (unknown origin) expressed in xenopus laevis oocytes assessed as inhibition of glycine/glutamate-induced channel current incubated for 20s measured at holding potential of -70 mV by two-electrode voltage clamp technique; type: cell-based; details: Homo sapiens, Oocyte
[16] = Antagonist activity at GluN1-1a/GluN2D (unknown origin) expressed in xenopus laevis oocytes assessed as inhibition of glycine/glutamate-induced channel current incubated for 20s measured at holding potential of -70 mV by two-electrode voltage clamp technique; type: cell-based; details: Homo sapiens, Oocyte
[17] = molecular target: Amyloid-beta precursor protein (Homo sapiens) (UniProt P05067); assay: Inhibition of AChE-induced Amyloid beta (1 to 42 residues) (unknown origin) aggregation at Abeta(1 to 42) to compound concentration ratio of 10:5 to 10:20 uM incubated for 48 hrs by ThT fluorescence method
Sequence of Amyloid-beta precursor protein (Homo sapiens) (P05067 whole entry, the tested form may be a part): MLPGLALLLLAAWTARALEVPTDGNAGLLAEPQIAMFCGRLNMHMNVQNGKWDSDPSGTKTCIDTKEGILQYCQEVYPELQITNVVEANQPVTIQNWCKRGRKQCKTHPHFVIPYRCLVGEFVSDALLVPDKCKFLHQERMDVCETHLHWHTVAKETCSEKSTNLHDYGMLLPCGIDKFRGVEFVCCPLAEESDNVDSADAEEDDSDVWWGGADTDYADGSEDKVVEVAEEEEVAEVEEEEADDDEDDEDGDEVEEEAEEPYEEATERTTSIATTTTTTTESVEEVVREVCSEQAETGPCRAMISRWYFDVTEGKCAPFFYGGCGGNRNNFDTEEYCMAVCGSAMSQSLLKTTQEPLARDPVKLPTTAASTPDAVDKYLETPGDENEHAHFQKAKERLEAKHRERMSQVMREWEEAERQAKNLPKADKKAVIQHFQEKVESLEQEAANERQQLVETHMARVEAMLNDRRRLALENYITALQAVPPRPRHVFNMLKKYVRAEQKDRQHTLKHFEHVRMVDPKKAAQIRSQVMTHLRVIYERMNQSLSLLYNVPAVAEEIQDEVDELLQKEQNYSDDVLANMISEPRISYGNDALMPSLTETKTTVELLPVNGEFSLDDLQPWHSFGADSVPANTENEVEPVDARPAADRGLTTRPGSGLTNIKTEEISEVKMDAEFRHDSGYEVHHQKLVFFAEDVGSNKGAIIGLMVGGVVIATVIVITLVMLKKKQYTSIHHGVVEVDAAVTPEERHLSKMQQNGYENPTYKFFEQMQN

Rattus norvegicus [18] = assay: Antialzheimer activity against scopalamine-induced amnesia Wistar rat model assessed as inhibition of cognition impairment by measuring increase in spontaneous alterations at 2.5 to 10 mg/kg, po administered for 7 days and on day 7 administered with scopolamine at 30 mins before drug administration by Y-maze test; type: functional, organism-based; details: dose 2.5-10 mg/kg, time 7.0 day
[19] = Antagonist activity at GluN1-1a/GluN2A (unknown origin) expressed in xenopus laevis oocytes assessed as inhibition of glycine/glutamate-induced channel current incubated for 20s measured at holding potential of -70 mV by two-electrode voltage clamp technique; type: cell-based; details: Homo sapiens, Oocyte
Rattus norvegicus [20] = assay: Antialzheimer activity against scopalamine-induced amnesia Wistar rat model assessed as inhibition of cognition impairment by measuring increase in spontaneous alterations at 10 mg/kg, po administered for 7 days and on day 7 administered with scopolamine at 30 mins before drug administration by Y-maze test; type: functional, organism-based; details: time 7.0 day
[21] = molecular target: Amyloid-beta precursor protein (Homo sapiens) (UniProt P05067); assay: Inhibition of self-induced Amyloid beta (1 to 42 residues) (unknown origin) aggregation at Abeta(1 to 42) to compound concentration ratio of 10:5 to 10:20 uM incubated for 48 hrs by ThT fluorescence method
[22] = molecular target: T2, Acetylcholinesterase (Rattus norvegicus); assay: Ex vivo inhibition of AChE activity in brain of scopalamine-induced amnesia Wistar rat model at 10 mg/kg, po administered for 7 days and on day 7 administered with scopolamine at 30 mins before drug administration; type: functional, organism-based; details: time 7.0 day
HEK-293T [23] = assay: Cytotoxicity against HEK293T cells assessed as reduction in cell viability at 100 uM measured after 44 hrs by WST-1 assay; type: toxicity, cell-based; details: human
[24] = Antagonist activity at GluN1-1b/GluN2D (unknown origin) expressed in xenopus laevis oocytes assessed as inhibition of glycine/glutamate-induced channel current incubated for 20s measured at holding potential of -70 mV by two-electrode voltage clamp technique; type: cell-based; details: Homo sapiens, Oocyte
HEK-293T [25] = assay: Cytotoxicity against HEK293T cells assessed as reduction in cell viability at 0.3 to 30 uM measured after 44 hrs by WST-1 assay; type: toxicity, cell-based; details: human, dose 0.3-30 µM
Acetylcholinesterase [26] = molecular target: T1, Acetylcholinesterase; assay: Inhibition of AChE (unknown origin)
Homo sapiens = species: Homo sapiens; assay: Antagonist activity at NMDA receptor (unknown origin) relative to control; details: filed as antagonist, concentration not given here

T1 sequence (P22303 whole entry): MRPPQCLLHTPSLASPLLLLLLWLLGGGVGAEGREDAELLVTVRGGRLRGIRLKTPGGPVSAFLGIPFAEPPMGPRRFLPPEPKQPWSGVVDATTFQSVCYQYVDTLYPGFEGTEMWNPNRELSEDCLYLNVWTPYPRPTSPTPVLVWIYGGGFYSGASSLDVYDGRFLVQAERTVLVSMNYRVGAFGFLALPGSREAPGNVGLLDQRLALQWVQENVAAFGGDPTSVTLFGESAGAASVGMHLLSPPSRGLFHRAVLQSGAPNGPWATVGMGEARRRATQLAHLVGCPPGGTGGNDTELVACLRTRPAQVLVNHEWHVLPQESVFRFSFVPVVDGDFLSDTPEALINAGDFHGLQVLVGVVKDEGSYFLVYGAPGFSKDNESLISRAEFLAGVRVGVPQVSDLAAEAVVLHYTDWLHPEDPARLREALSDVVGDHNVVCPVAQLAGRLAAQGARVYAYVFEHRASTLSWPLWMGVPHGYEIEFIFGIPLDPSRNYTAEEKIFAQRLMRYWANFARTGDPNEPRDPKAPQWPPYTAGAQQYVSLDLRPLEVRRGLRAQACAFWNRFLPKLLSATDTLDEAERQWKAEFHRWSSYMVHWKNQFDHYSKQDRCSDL

SMILES | IC50 (Cholinesterase) | Ratio IC50 [2] | Papp at 18 h, 25 ug/ml (in vitro) | IC50 [3] | IC50 (Acetylcholinesterase [4]) | also measured
Brc1ccc(Cn2cc(CNC3CCCCCC3)nn2)cc1 | 17.3 µM | 31.4 | 6.72 ×10⁻⁶ cm/s | 38.2 µM | 0.55 µM | IC50 (Acetylcholinesterase [1]): 0.621 µM
CC(C)c1ccc(Cn2cc(CNC34CC5CC(CC(C5)C3)C4)nn2)cc1 | 7.83 µM | 9.79 | 7.63 ×10⁻⁶ cm/s | 79.5 µM | 0.799 µM | 
Clc1ccc(Cn2cc(CNC3CCCCCC3)nn2)cc1 | 16.5 µM | 27.1 | 6.84 ×10⁻⁶ cm/s |  | 0.607 µM | IC50 (Acetylcholinesterase [1]): 0.927 µM
COc1cc2c(cc1OC)C(=O)C(CC1CCN(Cc3ccccc3)CC1)C2 (configuration not stated) |  |  |  |  |  | Activity (Rattus norvegicus [5]): Active; Activity (Rattus norvegicus [6]): Active; Activity (Rattus norvegicus [7]): Active
O=[N+]([O-])c1ccc(Cn2cc(CNC3CCCCCC3)nn2)cc1 | 19.2 µM | 4.14 | 6.31 ×10⁻⁶ cm/s | 116 µM | 4.64 µM | 
COc1ccc2nc3c(c(NCCCCCNC(=S)N[C@]45CC6C[C@@H](C[C@@H](C6)C4)C5)c2c1)CCCC3 |  |  |  |  |  | IC50 (Acetylcholinesterase [1]): 0.47 µM; Ki [8]: 1.8 µM
c1ccc(Cn2cc(CNC34CC5CC(CC(C5)C3)C4)nn2)cc1 | 4.72 µM | 13.1 | 6.95 ×10⁻⁶ cm/s |  | 0.36 µM | 
Clc1ccc(Cn2cc(CNC34CC5CC(CC(C5)C3)C4)nn2)cc1 | 3.8 µM | 28.1 | 8.24 ×10⁻⁶ cm/s | 5.05 µM | 0.135 µM | Activity (SH-SY5Y): Active; Activity (Rattus norvegicus [9]): Active; IC50 (Acetylcholinesterase [1]): 0.133 µM; IC50 [10]: 142 µM; IC50 [11]: 2.86 µM; IC50 [12]: 52.8 µM; inhibition [13]: Dose-Dependent Effect; Activity (Rattus norvegicus [14]): Active; IC50 [15]: 143 µM; IC50 [16]: 789 µM; inhibition [17]: Dose-Dependent Effect; Activity (Rattus norvegicus [18]): Dose-Dependent Effect; IC50 [19]: 129 µM; Activity (Rattus norvegicus [20]): Active; inhibition [21]: Dose-Dependent Effect; inhibition [22]: Active; Activity (HEK-293T [23]): Toxic; IC50 [24]: 239 µM; Activity (HEK-293T [25]): Non-Toxic
c1ccc(Cn2cc(CNC3CCCCCC3)nn2)cc1 | 11.4 µM | 8.02 | 7.2 ×10⁻⁶ cm/s |  | 1.41 µM | 
O=[N+]([O-])c1ccc(Cn2cc(CNC34CC5CC(CC(C5)C3)C4)nn2)cc1 | 9.54 µM | 5.93 | 6.83 ×10⁻⁶ cm/s | 21.8 µM | 1.61 µM | 
F[C@]12CC3C[C@](NCCCCCNc4c5c(nc6cc(Cl)ccc46)CCCC5)(C[C@H](C1)c1ccccc13)C2 |  |  |  |  |  | IC50 [8]: 0.9 µM
Cc1ccc(Cn2cc(CNC3CCCCCC3)nn2)cc1 | 19.3 µM | 15.8 | 7.35 ×10⁻⁶ cm/s | 63.6 µM | 1.22 µM | 
c1ccc(CNC23OC4C5C6CC(C7C6C4C72)C53)cc1 (configuration not stated) |  |  |  |  |  | IC50 [8]: 2.98 µM
Fc1ccc(Cn2cc(CNC3CCCCCC3)nn2)cc1 | 10.5 µM | 5.75 | 8.42 ×10⁻⁶ cm/s | 97.3 µM | 1.82 µM | 
Fc1ccc(Cn2cc(CNC34CC5CC(CC(C5)C3)C4)nn2)cc1 | 3.27 µM | 16.9 | 7.75 ×10⁻⁶ cm/s |  | 0.194 µM | 
COc1ccc2c(c1)c(=O)c1ccccc1n2Cc1cn(Cc2ccc(Cl)cc2)nn1 |  |  |  |  |  | IC50 (Acetylcholinesterase [26]): 7.31 µM
c1ccc(CCNC23CC4CC(CC(C4)C2)C3)cc1 |  |  |  |  |  | inhibition (Homo sapiens): 89.5%
Cc1ccc(Cn2cc(CNC34CC5CC(CC(C5)C3)C4)nn2)cc1 | 6.04 µM | 17.8 | 7.48 ×10⁻⁶ cm/s | 197 µM | 0.34 µM | 
CC(C)c1ccc(Cn2cc(CNC3CCCCCC3)nn2)cc1 | 15.7 µM | 10.3 | 7.24 ×10⁻⁶ cm/s | 217 µM | 1.52 µM | 
Cc1ccc(-c2cn(Cc3ccc4ccccc4c3)nn2)cc1C(=O)NCCN1CCOCC1 |  |  |  |  |  | IC50 (Acetylcholinesterase [26]): 7.23 µM
